Source: patent US11022550B2, “Method for observing organisms and associated system” (Commissariat à l'énergie atomique et aux énergies …, priority 2013, dated 2021)

How the values were obtained:
Assay type in all cases: cell-based
[1] = system: Escherichia coli ATCC 259922 (strain EC10); test: E-test minimum inhibitory concentration, sensitive strain EC10
Experimental: The sensitive strain is of the Escherichia coli species with the ATCC number of 259922. In the continuation of the description, the sensitive strain is noted as EC10. The minimum inhibitory concentration of the strain EC10 amounts to 1.0 μg/ml. In microbiology, the minimum inhibitory concentration (also noted with the acronym MIC) is the lowest concentration of antimicrobial agent which inhibits visible growth of an organism after one night of incubation. The value of 1.0 μg/ml for the minimum inhibitory concentration was obtained by conducting an E-test®. The principle of the E-test® is based on the combination of both concepts: Dilution and diffusion. The system E-test® comprises a non-porous plastic strip calibrated by a pre-established gradient of antibiotic concentration covering 15 dilutions for determining the MIC in μg/ml of a strain tested in a gelose medium.

[2] = system: Escherichia coli ATCC 35421 (strain EC21); test: E-test minimum inhibitory concentration, resistant strain EC21
Excerpt: The principle of the E-test® is based on the combination of both concepts: Dilution and diffusion. The system E-test® comprises a non-porous plastic strip calibrated by a pre-established gradient of antibiotic concentration covering 15 dilutions for determining the MIC in μg/ml of a strain tested in a gelose medium.
The resistant strain is of the Escherichia coli species of ATCC number 35421. In the continuation of the description, the resistant strain is noted as EC21.
This measurement was obtained by conducting an E-test®.

[3] = system: Escherichia coli strain EC10; test: Microcolony growth and diffraction patterns on MH2 agar with gentamycin disc gradient, strain EC10 (first and third experiments)
Excerpt: The solid substrate 16 is a MH2 agar medium. Depending on the cases, the solid substrate 16 includes an antibiotic with increasing concentration when one moves away from the center of the Petri dish. For example, such a gradient is obtained by depositing a disc impregnated with 30 micrograms (μg) of antibiotics. The disc, as an illustration, is a disc with a diameter of 6.5 mm, the reference of which is 66548 in the Biorad Corporation. When the disc is deposited at the surface of the substrate 16, an antibiotic concentration gradient is established, in the substrate 16, between the disc and the periphery of the substrate 16. In each case, the sample 12 to be studied is prepared according to the following procedure. At least one cell of the strain to be studied is cultivated on a trypticase soya gelose medium (often called TSA for <<Tryptic Soy Agar>>) for at least 24 hours. A suspension of 5 milliliters (ml) comprising water and an amount of cells of the strain such that the turbidity of the solution is equal to 0.5 McF (McFarland standard), is then prepared. The obtained suspension is diluted to 1/1000th in water in a single step. In the relevant experiments, […] are poured into […]. A volume of 70 μl of the thereby obtained diluted suspension is then spread out by means of a rake on the solid MH2 agar substrate 16. Such a volume corresponds to the spreading of approximately 1,000 to 1,500 colonies on the solid substrate 16. In the case when the experiment is conducted with a solid substrate 16 comprising the antibiotic gradient, the disc is applied immediately after the spreading step. The whole of the sample 12 is then incubated for six hours at a temperature of 37° C. (Celsius). After these six hours, the observation system 10 is used for applying a method for observing the cells of the sample 12. For the first experiment, the studied organisms belong to the EC10 strain and the solid substrate 16 comprises a gentamycin gradient. A first colony of cells of the EC10 strain of the sample 12 is illuminated with the laser beam emitted by the laser source 20. The center of this colony is found at a distance of 13.5 millimeters (mm) from the center of the disc, in an area with low gentamycin concentration, since it is sufficiently far from the disc. For the third experiment, a large number of diffraction patterns is acquired (about 100) for solid substrates 16 with and without gentamycin. The studied organism is a cell from the EC10 strain.

[4] = system: Escherichia coli strain EC21; test: Microcolony growth and diffraction patterns on MH2 agar with gentamycin disc gradient, strain EC21 (second experiment)
Excerpt: The solid substrate 16 is a MH2 agar medium. Depending on the cases, the solid substrate 16 includes an antibiotic with increasing concentration when one moves away from the center of the Petri dish. For example, such a gradient is obtained by depositing a disc impregnated with 30 micrograms (μg) of antibiotics. The disc, as an illustration, is a disc with a diameter of 6.5 mm, the reference of which is 66548 in the Biorad Corporation. When the disc is deposited at the surface of the substrate 16, an antibiotic concentration gradient is established, in the substrate 16, between the disc and the periphery of the substrate 16. In each case, the sample 12 to be studied is prepared according to the following procedure. At least one cell of the strain to be studied is cultivated on a trypticase soya gelose medium (often called TSA for <<Tryptic Soy Agar>>) for at least 24 hours. A suspension of 5 milliliters (ml) comprising water and an amount of cells of the strain such that the turbidity of the solution is equal to 0.5 McF (McFarland standard), is then prepared. The obtained suspension is diluted to 1/1000th in water in a single step. In the relevant experiments, […] are poured into […]. A volume of 70 μl of the thereby obtained diluted suspension is then spread out by means of a rake on the solid MH2 agar substrate 16. Such a volume corresponds to the spreading of approximately 1,000 to 1,500 colonies on the solid substrate 16. In the case when the experiment is conducted with a solid substrate 16 comprising the antibiotic gradient, the disc is applied immediately after the spreading step. The whole of the sample 12 is then incubated for six hours at a temperature of 37° C. (Celsius). After these six hours, the observation system 10 is used for applying a method for observing the cells of the sample 12. For the second experiment, the same experiment is conducted as the first experiment, by replacing the cells of the strain EC10 with cells of the strain EC21. […]

With gentamycin as the substance, how does the “minimum inhibitory concentration (MIC)” value [1] read?
Its value is 1.0 µg/mL.

And the “minimum inhibitory concentration (MIC)” value [2]?
Its value is “greater than 256 μg/ml”.

And the “maximum size of colony in direct space” value ([3]; 5.0 mm from center of 30 μg disc, 6 h incubation at 37° C.)?
The value was “about 15 μm”.

What about the “maximum size of colony in direct space” value ([3]; 8.3 mm from center of 30 μg disc, 6 h incubation at 37° C.) of the same substance?
Its value is “about 30 μm”.

What about the “maximum size of colony in direct space” value ([3]; 9.1 mm from center of 30 μg disc, 6 h incubation at 37° C.) of the same substance?
The value was “about 50 μm”.

And the “colony diameter in direct space” value ([3]; 13.5 mm from center of 30 μg disc, 6 h incubation at 37° C.)?
The value was “about 60 μm”.

And the “sensitivity of organism from main component analysis of diffraction patterns” value ([3]; about 100 diffraction patterns, with and without gentamycin, first main component smaller at larger concentration)?
Its value is “sensitive”.

What about the “maximum extension of each observed colony” value ([4]; 7.29, 6.63, 5.53 and 4.37 mm from center of 30 μg disc, 6 h incubation at 37° C.) of the same substance?
Its value is ~90 μm.

What about the “sensitivity of organism from comparison of diffraction patterns” value ([4]; diffraction patterns substantially identical at increasing gentamycin concentration) of the same substance?
Its value is “resistant”.

What about the “effect on growth of the organisms” value ([4]; gentamycin gradient on MH2 agar) of the same substance?
The value was “no effect on the growth”.
